# Values quoted from earlier work as cited in patent US20210220430A1, “USE OF NOD2 AGONIST FOR THE TREATMENT, PROPHYLAXIS AND/OR DELAY OF THE ONSET OF MULTIPLE SCLEROSIS AND ALZHEIMER?S DISEASE” (UNIVERSITE LAVAL, priority 2018, published 2021).
# Target: NOD2 (Homo sapiens, UniProt Q9HC29)
# Settings: compared with classical N-acetyl MDP
# Sequence of NOD2 (Q9HC29 whole entry, species assumed): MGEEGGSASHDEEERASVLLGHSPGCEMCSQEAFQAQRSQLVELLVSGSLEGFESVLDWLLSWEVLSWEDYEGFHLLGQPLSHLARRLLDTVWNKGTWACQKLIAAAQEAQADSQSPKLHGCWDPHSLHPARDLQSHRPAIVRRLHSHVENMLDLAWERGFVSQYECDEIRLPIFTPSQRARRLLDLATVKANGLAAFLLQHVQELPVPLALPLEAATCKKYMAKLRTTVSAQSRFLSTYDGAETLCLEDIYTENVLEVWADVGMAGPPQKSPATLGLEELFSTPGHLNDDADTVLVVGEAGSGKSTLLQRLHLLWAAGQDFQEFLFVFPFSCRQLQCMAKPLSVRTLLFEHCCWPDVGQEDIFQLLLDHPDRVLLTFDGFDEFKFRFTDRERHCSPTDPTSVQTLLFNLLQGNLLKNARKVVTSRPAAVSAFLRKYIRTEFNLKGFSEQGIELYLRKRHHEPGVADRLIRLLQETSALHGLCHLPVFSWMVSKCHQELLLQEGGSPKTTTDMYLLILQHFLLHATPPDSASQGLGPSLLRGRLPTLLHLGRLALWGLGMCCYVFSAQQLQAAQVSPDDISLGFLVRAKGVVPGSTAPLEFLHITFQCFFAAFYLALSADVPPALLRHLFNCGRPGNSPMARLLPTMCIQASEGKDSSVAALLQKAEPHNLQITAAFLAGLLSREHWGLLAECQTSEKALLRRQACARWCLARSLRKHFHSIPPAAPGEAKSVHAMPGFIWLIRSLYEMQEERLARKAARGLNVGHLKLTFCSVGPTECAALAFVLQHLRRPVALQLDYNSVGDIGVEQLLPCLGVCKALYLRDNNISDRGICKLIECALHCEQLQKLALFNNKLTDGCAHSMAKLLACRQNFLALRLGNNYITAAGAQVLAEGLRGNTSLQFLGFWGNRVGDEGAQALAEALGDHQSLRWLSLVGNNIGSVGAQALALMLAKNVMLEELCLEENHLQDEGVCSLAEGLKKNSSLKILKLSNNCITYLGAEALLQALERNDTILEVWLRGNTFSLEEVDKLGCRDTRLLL
smiles,measurement,value
C[C@@H](NC(=O)[C@@H](C)OC1C(NC(=O)CO)[C@@H](O)OC(CO)[C@H]1O)C(=O)NC(CCC(=O)O)C(N)=O (stereo partly shown) [N-glycolyl MDP],NOD2 agonist potency at stimulating inflammatory genes,more potent
